Assays:
[1] = biological target: T1, Amine oxidase [flavin-containing] B (Homo sapiens, UniProt P27338); experiment: Reversible inhibition of human recombinant MAO-B expressed in insect cell microsome assessed as enzyme activity recovery using kynuramine as substrate preincubated for 30 mins at 100xIC50 measured after 20 mins following 100-fold compound dilution with addition of substrate by fluorescence spectrophotometry; assay type: microsomes; set-up: scale not given: the % may be the effect or the level left
T1 sequence (P27338 whole entry): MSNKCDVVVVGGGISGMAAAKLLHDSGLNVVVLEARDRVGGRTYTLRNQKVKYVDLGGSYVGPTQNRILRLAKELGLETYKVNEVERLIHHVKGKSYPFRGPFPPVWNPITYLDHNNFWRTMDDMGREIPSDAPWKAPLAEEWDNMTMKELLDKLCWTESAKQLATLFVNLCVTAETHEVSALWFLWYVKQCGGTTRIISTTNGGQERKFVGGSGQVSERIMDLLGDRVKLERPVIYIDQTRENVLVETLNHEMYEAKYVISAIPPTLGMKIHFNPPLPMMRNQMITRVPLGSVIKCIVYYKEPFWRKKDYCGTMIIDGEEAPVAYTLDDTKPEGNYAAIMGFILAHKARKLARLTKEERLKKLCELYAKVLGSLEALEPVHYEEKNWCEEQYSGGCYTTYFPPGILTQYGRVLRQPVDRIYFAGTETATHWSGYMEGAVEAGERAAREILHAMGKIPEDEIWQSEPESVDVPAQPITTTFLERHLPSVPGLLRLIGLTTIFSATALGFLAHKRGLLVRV

[2] = biological target: T1, Amine oxidase [flavin-containing] B; experiment: (§1) Time dependent inhibition of human recombinant MAO-B expressed in insect cell microsome assessed as 4-hydroxyquinoline formation using kynuramine as substrate preincubated for 15 to 60 mins at 2 times IC50 measured after 15 mins following twofold compound dilution with addition of substrate by fluorescence spectrophotometry; assay type: microsomes; settings: 0.25 h
Homo sapiens = species: Homo sapiens; experiment: Selectivity index, ratio of IC50 for human recombinant MAO-A to IC50 for human recombinant MAO-B
[3] = biological target: T1, Amine oxidase [flavin-containing] B; experiment: as §1, with “Reversible” for “Time dependent”; assay type: microsomes; settings: 0.25 h
[4] = biological target: T1, Amine oxidase [flavin-containing] B; experiment: Competitive inhibition of human recombinant MAO-B expressed in insect cell microsome using kynuramine as substrate by Lineweaver-Burk plot analysis; assay type: microsomes
[5] = biological target: T1, Amine oxidase [flavin-containing] B; experiment: Competitive inhibition of human recombinant MAO-B expressed in insect cell microsome using kynuramine as substrate by Morrison equation analysis; assay type: microsomes
[6] = biological target: T1, Amine oxidase [flavin-containing] B
Description: Inhibition of human recombinant MAO-B expressed in insect cell microsome assessed as 4-hydroxyquinoline formation using kynuramine as substrate after 20 mins by fluorescence spectrophotometry

[7] = biological target: T2, Amine oxidase [flavin-containing] A (Homo sapiens, UniProt P21397); experiment: as §1, with “Reversible” for “Time dependent”, “MAO-A” for “MAO-B”; assay type: microsomes; settings: 0.25 h
T2 sequence (P21397 whole entry): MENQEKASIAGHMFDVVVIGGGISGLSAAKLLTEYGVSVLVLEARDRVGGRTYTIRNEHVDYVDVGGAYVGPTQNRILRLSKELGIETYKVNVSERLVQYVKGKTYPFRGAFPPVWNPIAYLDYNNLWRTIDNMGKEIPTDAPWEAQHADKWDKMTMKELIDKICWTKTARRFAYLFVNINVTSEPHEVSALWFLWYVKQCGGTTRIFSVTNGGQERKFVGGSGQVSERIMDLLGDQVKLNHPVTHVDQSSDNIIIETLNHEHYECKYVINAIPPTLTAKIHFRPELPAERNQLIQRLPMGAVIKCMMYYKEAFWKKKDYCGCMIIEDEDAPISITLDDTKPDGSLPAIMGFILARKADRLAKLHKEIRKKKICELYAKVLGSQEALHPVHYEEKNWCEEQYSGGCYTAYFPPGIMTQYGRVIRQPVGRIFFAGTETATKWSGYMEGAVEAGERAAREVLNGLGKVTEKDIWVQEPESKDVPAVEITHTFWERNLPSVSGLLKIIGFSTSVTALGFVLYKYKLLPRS

[8] = biological target: T2, Amine oxidase [flavin-containing] A; experiment: Inhibition of human recombinant MAO-A expressed in insect cell microsome assessed as 4-hydroxyquinoline formation using kynuramine as substrate after 20 mins by fluorescence spectrophotometry; assay type: microsomes
[9] = Octanol-water partition coefficient, log P of the compound by shake flask method; assay type: physicochemical
[10] = biological target: T2, Amine oxidase [flavin-containing] A; experiment: Inhibition of human recombinant MAO-A expressed in insect cell microsome assessed as 4-hydroxyquinoline formation using kynuramine as substrate at 100 uM after 20 mins by fluorescence spectrophotometry; assay type: microsomes

| Compound | Ratio IC50 (Homo sapiens) | IC50 [6] | IC50 [8] | logP [9] | other results |
| --- | --- | --- | --- | --- | --- |
| Cn1c(=O)c2c(nc(SCCc3ccc(Cl)cc3)n2C)n(C)c1=O | 423 | 20 nM | 8460 nM |  | Activity [1]: 26%; inhibition (INH) [2]: Active; inhibition (INH) [3]: Active; Ki [4]: 13 nM; Ki [5]: 9.8 nM; inhibition (INH) [7]: Active |
| Cn1c(=O)c2c(nc(SCCCc3ccccc3)n2C)n(C)c1=O |  |  | 6480 nM | 3.3 |  |
| Cn1c(=O)c2c(nc(SCCc3cccc(C(F)(F)F)c3)n2C)n(C)c1=O | 8290 | 17 nM | 141000 nM | 3.14 | Activity [1]: 22% |
| Cn1c(=O)c2c(nc(SCc3cccc(Br)c3)n2C)n(C)c1=O | 190 | 199 nM | 37900 nM |  |  |
| Cn1c(=O)c2c(nc(SCCc3cccc(Br)c3)n2C)n(C)c1=O | 143 | 40 nM | 5700 nM |  |  |
| Cn1c(=O)c2c(nc(SCCc3ccccc3)n2C)n(C)c1=O | 69 | 271 nM | 18700 nM | 3.22 |  |
| Cn1c(=O)c2c(nc(SCCc3ccc(F)cc3)n2C)n(C)c1=O | 207 | 71 nM | 14700 nM |  |  |
| Cn1c(=O)c2c(nc([S+]([O-])CCc3ccc(F)cc3)n2C)n(C)c1=O (stereo unspecified) | 68 | 3500 nM | 239000 nM |  |  |
| Cn1c(=O)c2c(nc(SCCc3cccc(Cl)c3)n2C)n(C)c1=O | 132 | 43 nM | 5660 nM |  |  |
| Cn1c(=O)c2c(nc([S+]([O-])CCc3ccc(Br)cc3)n2C)n(C)c1=O (stereo unspecified) | 122 | 471 nM | 57300 nM |  |  |
| Cn1c(=O)c2c(nc([S+]([O-])Cc3ccccc3)n2C)n(C)c1=O (stereo unspecified) | 2 | 131000 nM | 250000 nM |  |  |
| Cn1c(=O)c2c(nc(SCCc3ccc(C(F)(F)F)cc3)n2C)n(C)c1=O |  | 19 nM |  | 3.21 | inhibition (INH) [10]: Not Active |
| Cn1c(=O)c2c(nc(SCc3cccc(Cl)c3)n2C)n(C)c1=O | 28 | 227 nM | 6430 nM |  |  |
| Cn1c(=O)c2c(nc(SCCCc3cccc(Cl)c3)n2C)n(C)c1=O | 57 | 62 nM | 3530 nM | 3.76 |  |
| COc1cccc(CCSc2nc3c(c(=O)n(C)c(=O)n3C)n2C)c1 | 385 | 125 nM | 48100 nM |  |  |
| Cn1c(=O)c2c(nc(SCCc3ccc(Br)cc3)n2C)n(C)c1=O | 5680 | 19 nM | 108000 nM | 2.98 |  |
| Cn1c(=O)c2c(nc(SCCCc3ccc(Cl)cc3)n2C)n(C)c1=O | 12 | 61 nM | 708 nM | 3.59 |  |
| Cn1c(=O)c2c(nc([S+]([O-])CCc3ccc(Cl)cc3)n2C)n(C)c1=O (stereo unspecified) | 260 | 781 nM | 203000 nM |  |  |
| Cc1cccc(CCSc2nc3c(c(=O)n(C)c(=O)n3C)n2C)c1 | 235 | 51 nM | 12000 nM |  |  |
| Cc1ccc(CCSc2nc3c(c(=O)n(C)c(=O)n3C)n2C)cc1 | 1740 | 72 nM | 125000 nM | 3.15 |  |
| COc1ccc(CCSc2nc3c(c(=O)n(C)c(=O)n3C)n2C)cc1 | 7300 | 23 nM | 168000 nM | 2.55 |  |

— ChEMBL document CHEMBL2202975, “Inhibition of monoamine oxidase by 8-[(phenylethyl)sulfanyl]caffeine analogues” (Bioorg Med Chem, 2012)
